Measured values: patent US20070286839A1, “COMPOSITION COMPRISING JOJOBA CARBOXYLATES IN COMBINATION WITH JOJOBA ALCOHOL AND COSMETIC FORMULATION COMPRISING SAME” (priority 2006, published 2007)

Tested on: normal, human-derived epidermal keratinocytes
Assay: EPIDERM Skin Model In Vitro Toxicity Testing System, dermal irritancy potential (ET-50 test)
Settings: time at which percent viability equals 50%
Protocol: Applicants' jojobate carboxylate/jojoba alcohol/glycol formulation of Example I was evaluated by MatTek Corporation using an EPIDERM Skin Model In Vitro Toxicity Testing System.
The percentage of viable cells was then determined for each test sample using a spectrophotometric analysis at 570 nm. Thereafter, a semi-log plot of the percent viabilities, on the linear Y axis, versus the dosing times, on the log X axis. By interpolation, the time which the percent viability would equal 50%, i.e. the ET-50 time, was determined.

CCCCCCCCCCCCOS(=O)(=O)[O-].[Na+] [Sodium Lauryl Sulfate] was tested, and the ET-50 time was “less than 1 hours”.
Triton X was tested, and the ET-50 time was 3.7 h.
